{"source": "patent US11111202B2", "about": "“Production of salts of 4-hydroxybutyrate using biobased raw materials” (CJ Cheiljedang Corporation, priority 2012, dated 2021)", "origin": "cited, not measured here", "key": {"[1]": {"conditions": "or even longer if large doses have been consumed"}, "[2]": {"conditions": "after oral administration"}}, "data": [{"smiles": "O=C(O)CCCO", "note": "[GHB, γ-Hydroxybutyric acid]", "values": [{"measurement": "duration of the effects of GHB", "setting": "[1]", "value": "1.5 to 3", "unit": "h"}, {"measurement": "time of peak plasma concentration", "setting": "[2]", "value": "20 to 60", "unit": "min"}]}]}
